Laboratory results reported in US8299252B2, “Pyrazolopyridine and pyrrolopyridine multikinase inhibitors” (Chugai Seiyaku Kabushiki Kaisha, priority 2005, dated 2012).
In brackets after ≈: the same amount, converted by molar mass.

Legend:
[1] = test system: human colon cancer cell line HCT116 cells; assay: Antitumor test, HCT116 transplanted subcutaneously in nude mice; format: in vivo, female Balb/c nude mouse; settings: 100 mg/kg oral, once a day for 12 days
Procedure: A cell suspension of human colon cancer cell line HCT116 cells was prepared using Hanks's solution, and 5.0×10^6 cells thereof were transplanted subcutaneously into the flank of each female Balb/c nude mouse. Oral administration of the test compound (once a day for 12 days) was started when the transplanted tumor volume reached 200 to 250 mm^3. The tumor volume was calculated by the expression: 0.5×(minor axis)^2×(major axis). The tumor growth inhibition ratio of tumor growth of the test compound to tumor growth of the reference group was determined.

[2] = test system: human colon cancer cell line HCT116 cells; assay: Cell proliferation inhibitory activity, HCT116; format: cell-based; settings: Homo sapiens, HCT-116, read-out: 50% proliferation inhibitory concentration (IC50 value) HCT116; HCT116, 72 hours, WST-8
Procedure: (§1) The compounds according to the present invention were measured for cancer cell proliferation inhibitory activity and human umbilical vein endothelial cell (HUVEC) proliferation inhibitory activity.
(§2) Test compounds were serially diluted with dimethyl sulfoxide and then diluted 50 times with Ca^2+- and Mg^2+-free phosphate-buffered saline, and 20 μL of each of the resulting solution was dispensed into a 96-well plate. […] Each cell suspension contains approximately 3000 cells/180 μL. These cell suspensions were dispensed to the plate containing the test compounds at 180 μL/well and incubated in a 5% carbon dioxide gas incubator at 37° C. for 72 hours. 20 μL of WST-8 (HCT116, Dojin) or WST-1 (HUVEC, Roche Diagnostics) was added to each well, and absorbance at 450 nm (reference wavelength: 650 nm) was measured.

[3] = Pharmacokinetics test, oral administration; format: in vivo; settings: female, Balb/c nude, mouse, 100 mg/kg, plasma
Procedure: The compound according to the present invention and known Compound A were measured for pharmacokinetics. Each of the test compounds was orally administered to each female Balb/c nude mouse at a dose of 100 mg/kg, and concentrations of the compound in plasma 0.5, 2, 7, and 24 hours after the administration were quantitatively measured by LC-MS-MS.

[4] = test system: choroidal neovascularization; assay: Laser coagulation-induced murine choroidal neovascularization model; format: in vivo, C57BL6J mice; settings: for Average FA score: once a day for three days
Procedure: Laser coagulation was performed on two- to three-month-old C57BL6J mice (ten mice per group) by using a 408 nm semiconductor laser (DC-3000, Nidek). Both eyes were each irradiated at three positions with a spot size of 170 μm, an exposure time of 0.02 sec, and an output of 200 mW. The drug was orally administered once a day for three days beginning on the day of the laser coagulation. On the next day of the last administration, the mice were intravenously injected with 7 mg/kg of fluorescein. Five minutes after the injection, three fluorescent fundus images of each eye were taken (TRC-501X, Topcon) and stored in a CCD camera having 640×480 pixels as an image file. The total pixel brightness (0 to 1) in regions where fluorescein leakage was detected was used as an index (FA score) of choroidal neovascularization activity. The FA score was calculated by defining reference values such that the pixel brightness in a capillary region of a non-coagulated site is 0 and the pixel brightness on a main branch of the retinal blood vessel is 1.

[5] = test system: human umbilical vein endothelial cells (HUVEC), VEGF-dependent proliferation; assay: VEGF-dependent HUVEC proliferation inhibition assay; format: cell-based; settings: read-out: 50% proliferation inhibitory concentration (IC50 value) HUVEC (VEGF-dependent), 20 ng/mL of VEGF, 72 hours, WST-1
Procedure: as §1, §2

[6] = Solubility in fasted state simulated intestinal fluid; format: physicochemical; settings: pH 6.5, fassif, kinetic from dmso stock, fasted state simulated intestinal fluid (pH6.5), 37° C.
Procedure: 2 μL of each dimethyl sulfoxide solutions containing test compounds were dispensed into wells of a 96-well plate, and 200 μL of fasted state simulated intestinal fluid (pH6.5) was added to each well. The plate was shaken at 37° C. for 20 hours. The solution was filtered through a membrane filter, and 101 μL of the filtrate was transferred to a UV plate, followed by addition of 100 μL of a solution mixture of ethanol:water=2:1 thereto. Separately, as a standard, 101 μL of a solution prepared by 2 μL of a dimethyl sulfoxide solution, 4 μL of dimethyl sulfoxide, 400 μL of ethanol, and 200 μL of water was transferred to a UV plate, and 100 μL of fasted state simulated intestinal fluid (pH6.5) was added thereto. The solubility was calculated by the following expression: Solubility=[(absorbance of test solution)−blank]/[(absorbance of standard solution)−blank]×165 μM (165 μM is the concentration of the standard solution) Composition of the fasted state simulated intestinal fluid (pH6.5)
The composition was prepared in compliance with the description in E. Galia, et al., Pharm. Res. 1998, 698.
Taurocholic acid (161 mg), L-α-phosphatidylcholine (59 mg), potassium dihydrogen phosphate (0.39 g), and potassium chloride (0.77 g) were added to about 90 mL of water. The resulting solution was adjusted to a pH of 6.5 with a sodium hydroxide aqueous solution and then diluted to a volume of 100 mL with water. The solution was filtered through a membrane filter.

[7] = test system: human umbilical vein endothelial cells (HUVEC), VEGF-independent proliferation; assay: VEGF-independent HUVEC proliferation inhibition assay; format: cell-based; settings: read-out: 50% proliferation inhibitory concentration (IC50 value) HUVEC (VEGF-independent), vascular endothelial cell growth-promoting agent and heparin, 72 hours, WST-1
Procedure: as §1, §2

[8] = test system: tube formation of human-derived vascular endothelial cells (HUVEC); assay: Tube formation inhibition test (angiogenesis assay kit, KURABO); format: cell-based; settings: 264 h, final concentration 6.4 nM, 11 days, read-out: Tube formation inhibition ratio (%)
Procedure: The formed tubes were stained with a tube staining kit CD31 (KURABO). The stain image of each well was taken under a microscope, stored in an image file, and measured for the tube formation area using angiogenesis quantitative analysis software of KURABO. The inhibition ratio % of each test compound added to the well was calculated, provided that the ratio of the reference was 100%.

## O=C(Nc1ccc(Oc2ccnc3[nH]ccc23)cc1)Nc1ccc(CCC(F)F)c(C(F)(F)F)c1 [Compound 12, 1-[4-(3,3-Difluoropropyl)-3-(trifluoromethyl)phenyl]-3-[4-(1H-pyrrolo[2,3-b]pyridin-4-yloxy)phenyl]urea]
[1]; last administration day
  Tumor growth inhibition ratio (%): 100%
[1]; maximum decrease
  Decrease ratio in body weight (%): 6.5%
[2]
  IC50: 2600 nM
[3]
  AUC: 247 µg·h/mL
  Cmax: 22700 ng/mL
[4]; 50 mg/kg
  inhibition of the angiogenesis (in words): significantly inhibited
[4]; 50 mg/kg oral
  Average FA score: 6.910
[4]; 100 mg/kg
  inhibition of the angiogenesis (in words): significantly inhibited
[4]; 100 mg/kg oral
  Average FA score: 6.833
[5]
  IC50: 5.1 nM
[6]
  solubility at 20 h: 15 µg/mL (≈ 30.6 µM)
[7]
  IC50: 270 nM
[8]
  inhibition at 0.0064 µM: 81%
